Test results from ChEMBL document CHEMBL4800722, “Data for DCP probe BI 605906” (2021).
Calls of active or inactive are those of the source. No cut-off for these calls is given here.

Columns and labels:
[1] = target: Serine/threonine-protein kinase PLK1 (Homo sapiens) (UniProt P53350)
[2] = target: Sigma intracellular receptor 2 (Homo sapiens) (UniProt Q5BJF2); details: Compound concentration 10.0 uM
[3] = target: Cyclin-dependent kinase 13/Cyclin-K (Homo sapiens) (UniProt Q14004+O75909); assay: CDK13/CYCLIN K Invitrogen Lab (UK) kinase screen (BI); format: protein-complex assay; details: Compound concentration 1.0 uM
[4] = target: Nicotinic Acetylcholine Receptor (Homo sapiens) (UniProt P02708+P07510+P11230+P17787+P30926+P32297+P43681+Q07001+Q15822+Q9UGM1+Q15825+P30532+Q04844+P36544+Q9GZZ6+Q05901); details: Compound concentration 10.0 uM
[5] = target: Homeodomain-interacting protein kinase 4 (Homo sapiens) (UniProt Q8NE63); assay: HIPK4 Invitrogen Lab (UK) kinase screen (BI); details: Compound concentration 1.0 uM
[6] = target: Activin receptor type-1 (Homo sapiens) (UniProt Q04771); assay: ACVR1 Invitrogen Lab (UK) kinase screen (BI); details: Compound concentration 1.0 uM
[7] = target: Mitogen-activated protein kinase kinase kinase kinase 2 (Homo sapiens) (UniProt Q12851); details: Compound concentration 1.0 uM
[8] = target: Myosin-IIIb (Homo sapiens) (UniProt Q8WXR4); details: Compound concentration 1.0 uM
[9] = target: Peripheral plasma membrane protein CASK (Homo sapiens) (UniProt O14936); assay: CASK Invitrogen Lab (UK) kinase screen (BI); details: Compound concentration 1.0 uM
[10] = target: Serine/threonine-protein kinase SIK1 (Homo sapiens) (UniProt P57059); details: Compound concentration 1.0 uM
[11] = target: Serine/threonine-protein kinase 17A (Homo sapiens) (UniProt Q9UEE5); assay: STK17A Invitrogen Lab (UK) kinase screen (BI); details: Compound concentration 1.0 uM
[12] = target: RAC-beta serine/threonine-protein kinase (Homo sapiens) (UniProt P31751); details: Compound concentration 1.0 uM
[13] = target: Polyunsaturated fatty acid lipoxygenase ALOX12 (Homo sapiens) (UniProt P18054); details: Compound concentration 10.0 uM
[14] = target: LIM domain kinase 2 (Homo sapiens) (UniProt P53671); details: Compound concentration 1.0 uM
[15] = target: NUAK family SNF1-like kinase 2 (Homo sapiens) (UniProt Q9H093); assay: NUAK2 Invitrogen Lab (UK) kinase screen (BI); details: Compound concentration 1.0 uM
[16] = target: Sodium-dependent dopamine transporter (Homo sapiens, UniProt Q01959); details: Compound concentration 10.0 uM
[17] = target: Serine/threonine-protein kinase PLK3 (Homo sapiens) (UniProt Q9H4B4); details: Compound concentration 1.0 uM
[18] = target: Sigma non-opioid intracellular receptor 1 (Homo sapiens) (UniProt Q99720); details: Compound concentration 10.0 uM
[19] = target: Mitogen-activated protein kinase kinase kinase 14 (Homo sapiens) (UniProt Q99558); details: Compound concentration 1.0 uM
[20] = target: AMP-activated protein kinase, AMPK (Rattus norvegicus) (UniProt P54645+Q09137+P80386+P80385+Q9QZH4+Q6V7V4+D4A7E4); assay: AMPK DUNDEE kinase screen (BI); format: protein-complex assay; details: Compound concentration 10.0 uM
[21] = target: Mitogen-activated protein kinase kinase kinase kinase 4 (Homo sapiens) (UniProt O95819)
[22] = target: Adrenergic receptor beta (Rattus norvegicus) (UniProt P18090+P10608+P26255)
[23] = target: LIM domain kinase 1 (Homo sapiens) (UniProt P53667); details: Compound concentration 1.0 uM
[24] = target: Serine/threonine-protein kinase Nek2 (Homo sapiens) (UniProt P51955); details: Compound concentration 1.0 uM
[25] = target: cAMP-dependent protein kinase catalytic subunit alpha (Homo sapiens) (UniProt P17612)
[26] = target: Muscarinic acetylcholine receptor M1 (Homo sapiens) (UniProt P11229); details: Compound concentration 10.0 uM
[27] = target: AMPK alpha1/beta1/gamma2 (Homo sapiens) (UniProt Q9UGJ0+Q9Y478+Q13131); details: Compound concentration 1.0 uM
[28] = target: Ephrin type-B receptor 3 (Homo sapiens) (UniProt P54753); details: Compound concentration 1.0 uM
[29] = target: Death-associated protein kinase 1 (Homo sapiens) (UniProt P53355); details: Compound concentration 1.0 uM
[30] = target: Mitogen-activated protein kinase 13 (Homo sapiens) (UniProt O15264); details: Compound concentration 1.0 uM
[31] = target: Glycogen synthase kinase-3 beta (Homo sapiens) (UniProt P49841)
[32] = target: MAP kinase-interacting serine/threonine-protein kinase 2 (Homo sapiens) (UniProt Q9HBH9); assay: MKNK2 (MNK2) Invitrogen Lab (UK) kinase screen (BI); details: Compound concentration 1.0 uM
[33] = tested on: Serine/threonine-protein kinase B-raf (Homo sapiens), P15056 [V600E]; assay: BRAF V599E Invitrogen Lab (UK) kinase screen (BI); details: Compound concentration 10.0 uM
[34] = target: Fibroblast growth factor receptor 1 (Homo sapiens) (UniProt P11362)
[35] = target: MAP/microtubule affinity-regulating kinase 4 (Homo sapiens) (UniProt Q96L34); details: Compound concentration 1.0 uM
[36] = target: Receptor-interacting serine/threonine-protein kinase 2 (Homo sapiens) (UniProt O43353); details: Compound concentration 1.0 uM
[37] = target: Ribosomal protein S6 kinase beta-1 (Homo sapiens) (UniProt P23443); assay: S6K1 DUNDEE kinase screen (BI); details: Compound concentration 10.0 uM
[38] = target: Inhibitor of nuclear factor kappa-B kinase subunit beta (Homo sapiens, UniProt O14920); assay: Biochemical assay
[39] = target: Casein kinase II subunit alpha' (Homo sapiens) (UniProt P19784); details: Compound concentration 1.0 uM
[40] = target: AMP-activated protein kinase alpha-1/beta-2/gamma-3 (Homo sapiens) (UniProt O43741+Q13131+Q9UGI9); details: Compound concentration 1.0 uM

Sequence of Mitogen-activated protein kinase kinase kinase kinase 4 (Homo sapiens) (O95819 2-1239 limits assumed): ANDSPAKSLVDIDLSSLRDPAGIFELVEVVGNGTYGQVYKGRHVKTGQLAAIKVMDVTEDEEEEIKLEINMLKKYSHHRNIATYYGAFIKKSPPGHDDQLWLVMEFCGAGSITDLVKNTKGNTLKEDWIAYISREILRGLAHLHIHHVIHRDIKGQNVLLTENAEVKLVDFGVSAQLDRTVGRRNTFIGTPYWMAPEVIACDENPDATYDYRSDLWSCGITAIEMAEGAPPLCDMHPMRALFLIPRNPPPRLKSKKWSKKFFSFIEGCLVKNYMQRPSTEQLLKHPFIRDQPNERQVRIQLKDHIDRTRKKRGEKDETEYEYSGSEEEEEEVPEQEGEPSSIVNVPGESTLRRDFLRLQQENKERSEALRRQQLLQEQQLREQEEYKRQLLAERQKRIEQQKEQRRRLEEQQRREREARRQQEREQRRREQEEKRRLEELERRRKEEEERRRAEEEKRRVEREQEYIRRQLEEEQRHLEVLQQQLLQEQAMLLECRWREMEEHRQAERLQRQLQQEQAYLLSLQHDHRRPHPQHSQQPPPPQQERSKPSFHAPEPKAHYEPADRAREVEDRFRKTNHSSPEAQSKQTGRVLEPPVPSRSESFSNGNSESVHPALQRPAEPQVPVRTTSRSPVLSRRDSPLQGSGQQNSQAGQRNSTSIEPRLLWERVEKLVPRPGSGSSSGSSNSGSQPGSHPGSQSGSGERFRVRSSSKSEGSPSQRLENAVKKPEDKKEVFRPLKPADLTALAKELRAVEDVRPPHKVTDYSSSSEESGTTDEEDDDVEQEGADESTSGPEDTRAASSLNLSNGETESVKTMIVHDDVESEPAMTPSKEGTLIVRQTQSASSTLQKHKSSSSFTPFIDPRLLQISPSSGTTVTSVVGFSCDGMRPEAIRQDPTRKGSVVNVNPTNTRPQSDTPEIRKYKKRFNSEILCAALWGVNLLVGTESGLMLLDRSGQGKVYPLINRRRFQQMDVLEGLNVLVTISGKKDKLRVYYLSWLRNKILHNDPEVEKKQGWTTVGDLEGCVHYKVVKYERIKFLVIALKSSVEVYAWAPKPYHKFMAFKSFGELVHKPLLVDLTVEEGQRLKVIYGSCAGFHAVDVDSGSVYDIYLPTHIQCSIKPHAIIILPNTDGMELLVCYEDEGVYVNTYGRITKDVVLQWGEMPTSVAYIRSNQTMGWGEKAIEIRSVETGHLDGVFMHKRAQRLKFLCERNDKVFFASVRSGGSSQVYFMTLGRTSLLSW
Sequence of Fibroblast growth factor receptor 1 (Homo sapiens) (P11362 22-822 limits assumed): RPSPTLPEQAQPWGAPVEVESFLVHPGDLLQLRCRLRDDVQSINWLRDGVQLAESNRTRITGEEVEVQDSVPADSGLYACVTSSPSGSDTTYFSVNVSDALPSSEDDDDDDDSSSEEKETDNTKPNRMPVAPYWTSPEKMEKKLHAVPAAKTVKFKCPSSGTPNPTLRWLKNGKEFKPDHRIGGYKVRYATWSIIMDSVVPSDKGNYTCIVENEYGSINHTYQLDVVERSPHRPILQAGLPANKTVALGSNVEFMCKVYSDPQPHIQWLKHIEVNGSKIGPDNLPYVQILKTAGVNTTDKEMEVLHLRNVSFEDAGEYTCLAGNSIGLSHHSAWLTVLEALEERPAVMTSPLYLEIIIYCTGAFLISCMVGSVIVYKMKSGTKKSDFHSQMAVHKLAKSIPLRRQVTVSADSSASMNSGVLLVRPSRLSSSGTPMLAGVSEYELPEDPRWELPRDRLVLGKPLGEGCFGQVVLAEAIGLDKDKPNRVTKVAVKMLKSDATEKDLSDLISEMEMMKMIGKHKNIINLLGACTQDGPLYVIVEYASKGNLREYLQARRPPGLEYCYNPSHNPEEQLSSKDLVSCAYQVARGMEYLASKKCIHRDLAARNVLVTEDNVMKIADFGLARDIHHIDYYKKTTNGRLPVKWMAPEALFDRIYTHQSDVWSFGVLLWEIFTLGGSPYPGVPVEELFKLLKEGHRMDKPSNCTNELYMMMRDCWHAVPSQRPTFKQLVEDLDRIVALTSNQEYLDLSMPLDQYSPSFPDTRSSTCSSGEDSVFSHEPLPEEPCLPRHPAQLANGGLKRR
Sequence of Serine/threonine-protein kinase PLK1 (Homo sapiens) (P53350 whole entry): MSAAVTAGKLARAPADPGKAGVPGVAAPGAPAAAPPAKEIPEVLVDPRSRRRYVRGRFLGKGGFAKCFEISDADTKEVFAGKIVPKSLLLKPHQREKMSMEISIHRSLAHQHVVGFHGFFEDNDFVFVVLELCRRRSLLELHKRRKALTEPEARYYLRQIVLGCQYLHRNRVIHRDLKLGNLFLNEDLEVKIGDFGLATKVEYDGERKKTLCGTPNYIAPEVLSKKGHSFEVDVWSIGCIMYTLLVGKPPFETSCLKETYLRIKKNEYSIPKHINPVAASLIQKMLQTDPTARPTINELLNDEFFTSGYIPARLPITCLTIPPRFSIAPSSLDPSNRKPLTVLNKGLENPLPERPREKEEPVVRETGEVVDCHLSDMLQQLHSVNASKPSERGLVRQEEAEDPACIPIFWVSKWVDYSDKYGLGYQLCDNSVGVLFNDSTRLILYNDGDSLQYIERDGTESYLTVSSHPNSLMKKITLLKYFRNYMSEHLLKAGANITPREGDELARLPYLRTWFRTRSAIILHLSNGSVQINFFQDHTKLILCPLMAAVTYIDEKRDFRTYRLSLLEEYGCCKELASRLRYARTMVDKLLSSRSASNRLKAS
Sequence of Glycogen synthase kinase-3 beta (Homo sapiens) (P49841 whole entry, looked up): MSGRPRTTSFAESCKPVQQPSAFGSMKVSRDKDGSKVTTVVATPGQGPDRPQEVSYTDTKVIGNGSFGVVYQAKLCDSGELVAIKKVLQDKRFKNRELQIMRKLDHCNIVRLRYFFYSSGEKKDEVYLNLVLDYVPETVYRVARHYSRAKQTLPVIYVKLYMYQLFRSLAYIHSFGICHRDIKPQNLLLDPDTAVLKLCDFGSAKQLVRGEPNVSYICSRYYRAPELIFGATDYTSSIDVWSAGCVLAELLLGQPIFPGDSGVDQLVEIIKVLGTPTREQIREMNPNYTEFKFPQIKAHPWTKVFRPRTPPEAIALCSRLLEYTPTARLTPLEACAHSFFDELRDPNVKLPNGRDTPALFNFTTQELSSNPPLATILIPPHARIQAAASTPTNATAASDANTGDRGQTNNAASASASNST
Sequence of LIM domain kinase 2 (Homo sapiens) (P53671 whole entry, looked up, the tested form may be a part): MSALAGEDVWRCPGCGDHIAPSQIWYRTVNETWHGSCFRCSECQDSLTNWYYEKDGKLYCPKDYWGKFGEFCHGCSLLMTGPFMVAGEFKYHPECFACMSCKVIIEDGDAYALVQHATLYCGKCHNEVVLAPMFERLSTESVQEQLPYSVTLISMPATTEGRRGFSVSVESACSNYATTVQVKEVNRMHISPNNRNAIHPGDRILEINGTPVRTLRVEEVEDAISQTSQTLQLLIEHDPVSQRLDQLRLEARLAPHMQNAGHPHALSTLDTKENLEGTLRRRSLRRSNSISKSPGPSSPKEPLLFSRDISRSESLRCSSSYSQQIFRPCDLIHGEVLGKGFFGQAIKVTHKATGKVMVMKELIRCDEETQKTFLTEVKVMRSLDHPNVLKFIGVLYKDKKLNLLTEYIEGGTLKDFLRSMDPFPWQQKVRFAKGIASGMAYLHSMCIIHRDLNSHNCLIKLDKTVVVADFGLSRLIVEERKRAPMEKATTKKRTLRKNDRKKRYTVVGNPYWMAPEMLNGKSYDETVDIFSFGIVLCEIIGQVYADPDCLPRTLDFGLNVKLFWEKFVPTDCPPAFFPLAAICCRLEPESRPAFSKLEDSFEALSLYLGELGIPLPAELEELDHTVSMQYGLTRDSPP
Sequence of Polyunsaturated fatty acid lipoxygenase ALOX12 (Homo sapiens) (P18054 whole entry, the tested form may be a part): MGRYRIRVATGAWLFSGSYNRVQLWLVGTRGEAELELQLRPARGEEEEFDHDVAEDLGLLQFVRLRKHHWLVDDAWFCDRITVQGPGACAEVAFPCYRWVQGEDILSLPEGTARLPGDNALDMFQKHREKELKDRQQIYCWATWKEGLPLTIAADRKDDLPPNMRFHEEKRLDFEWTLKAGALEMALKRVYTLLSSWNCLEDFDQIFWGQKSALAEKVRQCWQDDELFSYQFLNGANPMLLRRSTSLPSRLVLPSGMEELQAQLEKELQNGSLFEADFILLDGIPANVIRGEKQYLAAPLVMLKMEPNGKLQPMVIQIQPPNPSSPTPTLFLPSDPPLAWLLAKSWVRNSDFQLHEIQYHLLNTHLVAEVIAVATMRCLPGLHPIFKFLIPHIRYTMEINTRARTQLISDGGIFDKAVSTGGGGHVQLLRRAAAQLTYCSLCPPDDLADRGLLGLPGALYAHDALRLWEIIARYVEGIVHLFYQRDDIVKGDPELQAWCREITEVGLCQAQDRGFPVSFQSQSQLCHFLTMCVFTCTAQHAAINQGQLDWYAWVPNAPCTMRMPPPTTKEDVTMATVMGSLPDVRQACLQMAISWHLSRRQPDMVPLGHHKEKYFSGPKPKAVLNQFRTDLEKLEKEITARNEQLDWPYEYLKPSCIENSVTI
Sequence of Casein kinase II subunit alpha' (Homo sapiens) (P19784 whole entry, looked up): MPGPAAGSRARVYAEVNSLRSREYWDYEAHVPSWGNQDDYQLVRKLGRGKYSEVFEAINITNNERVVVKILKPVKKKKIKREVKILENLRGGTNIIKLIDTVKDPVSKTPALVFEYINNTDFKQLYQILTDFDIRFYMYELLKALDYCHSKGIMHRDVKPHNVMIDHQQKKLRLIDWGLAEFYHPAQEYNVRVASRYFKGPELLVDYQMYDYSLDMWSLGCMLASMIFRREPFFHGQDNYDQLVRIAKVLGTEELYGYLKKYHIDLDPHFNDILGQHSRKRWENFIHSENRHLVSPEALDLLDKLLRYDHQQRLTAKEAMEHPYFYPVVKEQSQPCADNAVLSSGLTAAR
Sequence of Sigma intracellular receptor 2 (Homo sapiens) (Q5BJF2 whole entry): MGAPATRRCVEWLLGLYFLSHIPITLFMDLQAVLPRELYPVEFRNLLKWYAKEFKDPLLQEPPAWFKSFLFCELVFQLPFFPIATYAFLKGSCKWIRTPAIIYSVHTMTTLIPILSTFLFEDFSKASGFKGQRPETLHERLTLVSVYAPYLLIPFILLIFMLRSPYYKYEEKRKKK

SMILES: CCC(F)(F)c1cc(N2CCC(S(C)(=O)=O)CC2)nc2sc(C(N)=O)c(N)c12 [BI-605906]
- residual activity ([1]; Compound concentration 1.0 uM): 94%
- residual activity ([1]; Compound concentration 10.0 uM): 109%
- inhibition [2]: 34.5%
- residual activity [3]: 85%
- residual activity [4]: 101%
- residual activity [5]: 77%
- residual activity [6]: 79%
- residual activity [7]: 99%
- residual activity [8]: 90%
- residual activity [9]: 52%
- residual activity [10]: 92%
- residual activity [11]: 80%
- residual activity [12]: 95%
- residual activity [13]: 96%
- residual activity [14]: 95%
- residual activity [15]: 86%
- inhibition [16]: 2.35%
- residual activity [17]: 93%
- inhibition [18]: 8.89%
- residual activity [19]: 100%
- residual activity [20]: 79.2%
- residual activity ([21]; Compound concentration 1.0 uM): 95%
- residual activity ([21]; Compound concentration 10.0 uM): 89%
- residual activity ([22]; Compound concentration 10.0 uM): 86%
- residual activity ([22]; Compound concentration 100.0 uM): 94%
- residual activity [23]: 97%
- residual activity [24]: 93%
- residual activity ([25]; Compound concentration 1.0 uM): 98%
- residual activity ([25]; Compound concentration 10.0 uM): 71%
- inhibition [26]: 8.33%
- residual activity [27]: 89%
- residual activity [28]: 99%
- residual activity [29]: 100%
- residual activity [30]: 94%
- residual activity ([31]; Compound concentration 1.0 uM): 93%
- residual activity ([31]; Compound concentration 10.0 uM): 87%
- residual activity [32]: 68%
- residual activity [33]: 34%
- residual activity ([34]; Compound concentration 1.0 uM): 84%
- residual activity ([34]; Compound concentration 10.0 uM): 91%
- residual activity [35]: 100%
- residual activity [36]: 94%
- residual activity [37]: 56.3%
- IC50 [38]: 49 nM (active)
- residual activity [39]: 87%
- residual activity [40]: 91%
